Consider 3 compounds from patent publication US5260286A, “2-piperidinecarboxylic acid derivatives useful as NMDA receptor antagonists” (Japan Tobacco, Inc., priority 1992, dated 1993).

pKi: −log10 of the molar value. Like-named read-outs stand apart in the source and are kept apart here.

For one data set, the target named is NMDA receptor. Nature of the data set: In vitro binding assay, inhibition of [^3 H]CGS-19755 binding at the NMDA receptor site (semipurified synaptic membranes from rat forebrain). Set-up: species or system Adult male Sprague-Dawley rats. Particulars: 10 nM [^3 H]CGS-19755, 15 minutes at 4° C., 50 mM Tris-citrate pH 7.1; read-out: Ki [^3 H]CGS19755. The procedure: The compounds of the invention were tested for their ability to inhibit [^3 H]CGS-19755 binding. Semipurified synaptic membranes were prepared according to the method of Bristow et al. (1986) with minor modifications. Adult male Sprague-Dawley rats were decapitated, and the forebrains were removed, weighed and homogenized in 20 volumes of 0.32M sucrose. The homogenate was centrifuged at 27,000×G for 15 minutes. The pellet was resuspended in 20 volumes of distilled water followed by centrifugation at 8000×G for […]. Both the supernatant and the buffy coat layer, removed with 5 mM Tris-Cl (2 mL), pH 7.8, were pooled and centrifuged at 27,000×G for 15 minutes. The supernatant was removed and the pellet was covered with a small amount of 5 mM Tris-HCl and stored at -20° C. for least 18 hours. Membranes were then washed four times in 50 mM Tris-citrate, pH 7.1, and finally resuspended in the same buffer. This suspension was used for the binding assay immediately or frozen for subsequent use.
Aliquots of membranes (800 μl) were incubated with 10 nM [^3 H]CGS-19755 (100 μl) and varying concentrations of the test compounds (100 μl) for 15 minutes at 4° C. Then a filtration assay was used. The samples were filtered over glass fiber filters using a Brandel Cell Harvester. […]
Ki values were calculated from the equation: [formula]

The subject of the next data set is NMDA-Induced Lethality. As to the kind of experiment: In vivo protection in the mouse against NMDA-induced lethality. Set-up: species or system male Swiss-Webster mice. The note with it: ip; for ED50: Mus musculus, read-out: PD50. The procedure: (§1) According to the method described by Ferkany et al. (1988), the test compounds were administered ip to four male Swiss-Webster mice (26-34 g) each, following 30 minutes later, 200 mg/kg of NMDA was administered to the mice each. […] Those compounds that protected three or more of the mice at any of the doses were evaluated further by determining the ED50 values using three or more doses with the eight mice per dose. The ED50 was estimated by the method of Litchfield and Wilcoxin (1949). Water-soluble compounds were dissolved in distilled water and administered in a volume of 10 mL/kg. Water-insoluble compounds were suspended in an aqueous solution of 0.5% methyl cellulose and administered in a volume of 20 mL/kg.

Data set [1] is described as follows: Lethality of NMDA in mice. On the set-up: species or system male Swiss-Webster mice. The note with it: mouse, in vivo. The procedure:
as §1

Another data set relates to NMDA recognition site. The note with it: Lehman et al., 1988; Murphy et al., 1987; cited from earlier work.
Where [2] appears, read: 30 minutes before 200 mg/kg NMDA, Litchfield and Wilcoxin.

For `O=C(O)C1C/C(=C/P(=O)(O)O)CCN1` (centres unmarked) [E-4-(phosphonomethylidene)-2-piperidinecarboxylic acid], the pKi on NMDA receptor was 6.23. Also, the ED50 in the data set on NMDA-Induced Lethality is 1.1 mg/kg. Moreover, in the data set with NMDA-Induced Lethality (setting [2]), the “Confidence Limits (of PD50)” value is 0.5-2.2 and the Slope came out at 1.96.
As for `CN[C@H](CC(=O)O)C(=O)O` [NMDA, N-methyl-D-aspartate], in data set [1] (200 mg/kg NMDA, read-out: mice died at 200 mg/kg NMDA), the mortality was roughly 90%. For the same compound, the LD50 in data set [1] (mice) stood at 164 mg/kg.
For `O=C(O)[C@H]1C[C@@H](CP(=O)(O)O)CCN1` (relative stereo) [CGS-19755, cis-4-(phosphonomethyl)-2-piperidinecarboxylicacid], the pKi at NMDA receptor is 6.95. Besides, the “antagonists at the NMDA recognition site” value in the data set on NMDA recognition site is “high-affinity antagonists”. Further, the ED50 in the data set with NMDA-Induced Lethality (30 minutes before 200 mg/kg NMDA, eight mice per dose, Litchfield and Wilcoxin) came out at 2 mg/kg. Moreover, in the data set on NMDA-Induced Lethality (setting [2]), the “Confidence Limits (of PD50)” value is listed as 1.2-3.6 and the Slope is listed as 2.46.

Broadly, the pKi is the Ki on a negative log10 scale, so that one unit is a factor of ten. A word on the LD50: it is the dose expected to kill half of the subjects tested.
